Experimental data reported in patent publication US10604523B2, “1-aryl-4-methyl-[1,2,4]triazolo[4,3-a]quinoxaline derivatives” (Janssen Pharmaceutica NV, priority 2011, dated 2020).
Where two headings read alike, the source gives them in different places. Blank lines part the entries; values can stand above or below the compound they belong to.

Tests used:
[1] = target: T1, Rat recombinant PDE10A (rPDE10A2) (Rattus norvegicus, UniProt Q9QYJ6); assay: In vitro assay PDE10A (SPA, 3H-cAMP); format: biochemical; settings: for IC50: read-out: PIC50 PDE10 (converted)
T1 construct: made in house; host or cells: Sf9 insect cells (baculovirus)
T1 sequence (Q9QYJ6 1-794): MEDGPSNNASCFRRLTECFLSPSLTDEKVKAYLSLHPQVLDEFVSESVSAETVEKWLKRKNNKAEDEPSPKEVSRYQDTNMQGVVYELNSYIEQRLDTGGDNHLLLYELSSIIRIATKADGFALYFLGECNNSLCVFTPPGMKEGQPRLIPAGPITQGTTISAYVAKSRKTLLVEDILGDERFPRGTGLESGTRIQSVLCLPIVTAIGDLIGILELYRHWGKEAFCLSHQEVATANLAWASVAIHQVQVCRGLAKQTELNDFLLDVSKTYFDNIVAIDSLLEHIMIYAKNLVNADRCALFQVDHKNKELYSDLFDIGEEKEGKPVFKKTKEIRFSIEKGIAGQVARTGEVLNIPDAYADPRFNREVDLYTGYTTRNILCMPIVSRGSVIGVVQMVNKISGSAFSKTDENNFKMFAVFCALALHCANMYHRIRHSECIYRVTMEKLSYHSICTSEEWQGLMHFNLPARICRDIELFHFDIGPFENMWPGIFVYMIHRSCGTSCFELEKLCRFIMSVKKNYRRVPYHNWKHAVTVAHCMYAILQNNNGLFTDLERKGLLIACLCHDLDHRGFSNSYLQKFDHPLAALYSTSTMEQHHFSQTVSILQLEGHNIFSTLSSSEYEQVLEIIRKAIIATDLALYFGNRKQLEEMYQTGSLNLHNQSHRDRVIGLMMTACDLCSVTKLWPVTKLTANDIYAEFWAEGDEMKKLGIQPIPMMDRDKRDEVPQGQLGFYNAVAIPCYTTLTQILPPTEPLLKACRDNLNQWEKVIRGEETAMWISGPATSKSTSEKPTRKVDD

[2] = test system: Apomorphine-induced agitation; assay: Reversal of Apomorphine-induced Agitation in Rats (APO); format: in vivo, rat; settings: for PO Max effect (cumulative agitation score over 60 min) / SC Max effect (cumulative agitation score over 60 min): apomorphine 1.0 mg/kg i.v.; for PO LAD (lowest active dose) / SC LAD (lowest active dose): lowest dose at which ≥67% tested animals respond; for SC Dose at max effect / SC Max effect (cumulative agitation score over 60 min) / SC LAD (lowest active dose): subcutaneous route
Procedure: Apomorphine (1.0 mg/kg, i.v.)-induced agitation was scored every 5 min over the first hour after injection of apomorphine. The score system was: (3) pronounced, (2) moderate, (1) slight, and (0) absent. […] For the present purpose, the cumulative agitation score over the whole 60-min observation period was used as a measure to describe the maximum effect (Max effect).

[3] = -log IC50 expressed in mol/L, rPDE10A2, 60 nM cAMP

Structure (SMILES): CCCCOc1cncc(-c2nnc3c(C)nc4ccc(CN5CCOCC5)cc4n23)c1.Cl [Compound B-17a, 1-(5-Butoxypyridin-3-yl)-4-methyl-8-(morpholin-4-ylmethyl) [1,2,4]triazolo[4,3-a]quinoxaline hydrochloride]
SC Dose at max effect [2]: 40 mg/kg | SC Max effect (cumulative agitation score over 60 min) [2]: 23 | SC LAD (lowest active dose) [2]: > 40 mg/kg

Structure (SMILES): Cc1nc2ccc(CN3CCOCC3)cc2n2c(-c3ccccc3Cl)nnc12 [Compound B-19, 1-(2-Chlorophenyl)-4-methyl-8-(morpholin-4-ylmethyl)[1,2,4]triazolo[4,3-a]-quinoxaline]
SC Dose at max effect [2]: 5 mg/kg | SC Max effect (cumulative agitation score over 60 min) [2]: 14 | SC LAD (lowest active dose) [2]: 5 mg/kg

Structure (SMILES): CCNCc1ccc2nc(C)c3nnc(-c4ccccc4Cl)n3c2c1 [Compound B-20, N-{[1-(2-Chlorophenyl)-4-methyl[1,2,4]triazolo[4,3-a]quinoxalin-8-yl]methyl}-ethanamine]
SC Dose at max effect [2]: 10 mg/kg | SC Max effect (cumulative agitation score over 60 min) [2]: 21 | SC LAD (lowest active dose) [2]: > 10 mg/kg

Structure (SMILES): Cc1nc2ccc(CN3CCOCC3)cc2n2c(-c3c(F)cccc3Cl)nnc12 [Compound B-23, 1-(2-Chloro-6-fluorophenyl)-4-methyl-8-(morpholin-4-ylmethyl)[1,2,4]triazolo[4,3-a]quinoxaline]
SC Dose at max effect [2]: 40 mg/kg | SC Max effect (cumulative agitation score over 60 min) [2]: 1 | SC LAD (lowest active dose) [2]: 0.63 mg/kg

Structure (SMILES): Cc1nc2ccc(C(=O)NCCN3CCOCC3)cc2n2c(-c3ccccc3Cl)nnc12 [Compound B-36]
SC Dose at max effect [2]: 10 mg/kg | SC Max effect (cumulative agitation score over 60 min) [2]: 21 | SC LAD (lowest active dose) [2]: > 10 mg/kg | IC50 [1]: 0.0112 µM

Structure (SMILES): CCN(CC)CCNC(=O)c1ccc2nc(C)c3nnc(-c4ccccc4Cl)n3c2c1 [Compound B-41]
SC Dose at max effect [2]: 10 mg/kg | SC Max effect (cumulative agitation score over 60 min) [2]: 22 | SC LAD (lowest active dose) [2]: > 10 mg/kg | IC50 [1]: 0.0447 µM

Structure (SMILES): Cc1nc2ccc(CN3CCC(O)C3)cc2n2c(-c3ccccc3Cl)nnc12 (centres unmarked) [Compound B-57]
SC Dose at max effect [2]: 10 mg/kg | SC Max effect (cumulative agitation score over 60 min) [2]: 22 | SC LAD (lowest active dose) [2]: > 10 mg/kg | IC50 [1]: 0.0182 µM

Structure (SMILES): Cc1nc2ccc(CN3CCOCC3)cc2n2c(-c3cc(OC(C)C)ccc3Cl)nnc12 [Compound B-58]
PIC50 PDE10 [1, 3]: 5.73

Structure (SMILES): CCCOc1ccc(Cl)c(-c2nnc3c(C)nc4ccc(Br)cc4n23)c1 [Compound B-92]
IC50 [1]: 0.468 µM

Structure (SMILES): CCCOc1ccc(Cl)c(-c2nnc3c(C)nc4ccc(CNCC)cc4n23)c1 [Compound B-111]
IC50 [1]: 1.78 µM

Structure (SMILES): CCCOc1cncc(-c2nnc3c(C)nc4ccc(CN5CCOCC5)cc4n23)c1 [Compound B-119]
PIC50 PDE10 [1, 3]: 5.21

Structure (SMILES): Cc1nc2ccc(CN(C)C)cc2n2c(-c3cc(OC(C)C)ccc3Cl)nnc12 [Compound B-141]
PIC50 PDE10 [1, 3]: 5.8

Structure (SMILES): CCNC(=O)c1ccc2nc(C)c3nnc(-c4cccnc4)n3c2c1 [Compound B-143]
IC50 [1, 3]: 1.35 µM

Structure (SMILES): CCNCc1ccc2nc(C)c3nnc(-c4cc(OC(C)C)ccc4Cl)n3c2c1 [Compound B-148]
PIC50 PDE10 [1, 3]: 5.07

Structure (SMILES): CCCCOc1ccc(Cl)c(-c2nnc3c(C)nc4ccc(CNC(C)C)cc4n23)c1 [Compound B-149]
PIC50 PDE10 [1, 3]: 5.38

Structure (SMILES): CCCCOc1cncc(-c2nnc3c(C)nc4ccc(CNCC)cc4n23)c1 [Compound B-150]
IC50 [1]: > 10 µM

Structure (SMILES): CCNCc1ccc2nc(C)c3nnc(-c4cc(OCC)ccc4Cl)n3c2c1 [Compound B-151a]
PIC50 PDE10 [1, 3]: 6.04

Structure (SMILES): CCCCOc1cncc(-c2nnc3c(C)nc4ccc(CNC(C)C)cc4n23)c1 [Compound B-153]
IC50 [1, 3]: > 10 µM

Structure (SMILES): CCCCOc1ccc(F)c(-c2nnc3c(C)nc4cc(C#N)ccc4n23)c1 [Compound B-176]
IC50 [1]: > 10 µM

Structure (SMILES): CCCOc1cncc(-c2nnc3c(C)nc4ccc(CNCC)cc4n23)c1 [Compound B-178]
IC50 [1]: > 10 µM

Structure (SMILES): CCCCOc1ccc(Cl)c(-c2nnc3c(C)nc4ccc(CNC)cc4n23)c1 [Compound B-192]
PIC50 PDE10 [1, 3]: 5.04

Structure (SMILES): Cc1nc2ccc(CN3CCOCC3)cc2n2c(-c3cncc(OCC4CC4)c3)nnc12 [Compound B-193]
PIC50 PDE10 [1, 3]: 5.44

Structure (SMILES): CCCCOc1cncc(-c2nnc3c(C)nc4ccc(CNC)cc4n23)c1 [Compound B-200]
IC50 [1]: > 10 µM

Structure (SMILES): CCCCOc1cc(-c2nnc3c(C)nc4ccc(CN5CCOCC5)cc4n23)cnc1Cl [Compound B-202]
IC50 [1, 3]: > 10 µM

Structure (SMILES): Cc1nc2ccc(CN(C)C)cc2n2c(-c3cncc(OCC4CC4)c3)nnc12 [Compound B-205]
IC50 [1]: > 10 µM

Structure (SMILES): Cc1nc2ccc(CNC(C)C)cc2n2c(-c3cncc(OCC4CC4)c3)nnc12 [Compound B-210]
IC50 [1]: 1.45 µM

Structure (SMILES): CCNCc1ccc2nc(C)c3nnc(-c4cncc(OCC5CC5)c4)n3c2c1 [Compound B-211]
IC50 [1, 3]: > 10 µM

The next lines start with results.

IC50 [1, 3]: 0.295 µM
Structure (SMILES): CCOC(=O)c1ccc2nc(C)c3nnc(-c4ccccc4)n3c2c1 [Compound B-2a, Ethyl 4-methyl-1-phenyl[1,2,4]triazolo[4,3-a]quinoxaline-8-carboxylate]

PIC50 PDE10 [1, 3]: 5.57
Structure (SMILES): CCOC(=O)c1ccc2c(c1)nc(C)c1nnc(-c3ccccc3)n12 [Compound B-2b, Ethyl 4-methyl-1-phenyl[1,2,4]triazolo[4,3-a]quinoxaline-7-carboxylate]

IC50 [1, 3]: 0.0437 µM
Structure (SMILES): Cc1nc2ccc(Br)cc2n2c(-c3ccccc3Cl)nnc12 [Compound B-3a, 8-Bromo-1-(2-chlorophenyl)-4-methyl[1,2,4]triazolo[4,3-a]quinoxaline]
PO Dose at Max Effect [2]: 10 mg/kg | PO Max effect (cumulative agitation score over 60 min) [2]: 22 | PO LAD (lowest active dose) [2]: > 10 mg/kg

IC50 [1]: 0.0417 µM
Structure (SMILES): Cc1nc2ccc(C(=O)NCc3ccccc3)cc2n2c(-c3ccccc3)nnc12 [Compound B-9, N-Benzyl-4-methyl-1-phenyl[1,2,4]triazolo[4,3-a]quinoxaline-8-carboxamide]
PO Dose at Max Effect [2]: 2.5 mg/kg | PO Max effect (cumulative agitation score over 60 min) [2]: 22 | PO LAD (lowest active dose) [2]: > 2.5 mg/kg

IC50 [1, 3]: 0.0214 µM
Structure (SMILES): CCNC(=O)c1ccc2nc(C)c3nnc(-c4ccccc4Cl)n3c2c1 [Compound B-10, 1-(2-Chlorophenyl)-N-ethyl-4-methyl[1,2,4]triazolo[4,3-a]quinoxaline-8-carboxamide]
PO Dose at Max Effect [2]: 2.5 mg/kg | PO Max effect (cumulative agitation score over 60 min) [2]: 21 | PO LAD (lowest active dose) [2]: > 2.5 mg/kg

IC50 [1, 3]: 0.0123 µM
Structure (SMILES): CCNC(=O)c1ccc2nc(C)c3nnc(-c4c(Cl)cccc4Cl)n3c2c1 [Compound B-33]

IC50 [1, 3]: 0.00832 µM
Structure (SMILES): Cc1nc2ccc(C(=O)NCc3ccccn3)cc2n2c(-c3ccccc3Cl)nnc12 [Compound B-35]
PO Dose at Max Effect [2]: 10 mg/kg | PO Max effect (cumulative agitation score over 60 min) [2]: 22 | PO LAD (lowest active dose) [2]: > 10 mg/kg

IC50 [1]: 0.0195 µM
Structure (SMILES): Cc1nc2ccc(CN3CCCC(O)C3)cc2n2c(-c3ccccc3Cl)nnc12 (centres unmarked) [Compound B-62]
SC Dose at max effect [2]: 10 mg/kg | SC Max effect (cumulative agitation score over 60 min) [2]: 21 | SC LAD (lowest active dose) [2]: > 10 mg/kg

IC50 [1]: 0.251 µM
Structure (SMILES): CCNC(=O)c1ccc2nc(C)c3nnc(-c4ccccc4)n3c2c1 [Compound B-65]
PO Dose at Max Effect [2]: 10 mg/kg | PO Max effect (cumulative agitation score over 60 min) [2]: 21 | PO LAD (lowest active dose) [2]: > 10 mg/kg

IC50 [1, 3]: 0.178 µM
Structure (SMILES): CCNC(=O)c1ccc2nc(C)c3nnc(-c4cccnc4C)n3c2c1 [Compound B-68]
SC Dose at max effect [2]: 10 mg/kg | SC Max effect (cumulative agitation score over 60 min) [2]: 22 | SC LAD (lowest active dose) [2]: > 10 mg/kg

PIC50 PDE10 [1, 3]: 6.58
Structure (SMILES): CCOc1ccc(Cl)c(-c2nnc3c(C)nc4ccc(CN5CCOCC5)cc4n23)c1 [Compound B-70]
SC Dose at max effect [2]: 10 mg/kg | SC Max effect (cumulative agitation score over 60 min) [2]: 24 | SC LAD (lowest active dose) [2]: > 10 mg/kg

IC50 [1]: 0.741 µM
Structure (SMILES): CCNC(=O)c1ccc2nc(C)c3nnc(-c4cncc(OC)c4)n3c2c1 [Compound B-80]

IC50 [1]: 1.74 µM
Structure (SMILES): CCCCOc1ccc(F)c(-c2nnc3c(C)nc4ccc(Br)cc4n23)c1 [Compound B-95]

PIC50 PDE10 [1, 3]: 7.3
Structure (SMILES): Cc1nc2ccc(CNCc3ccccc3)cc2n2c(-c3ccccc3Cl)nnc12 [Compound B-99]

IC50 [1]: 5.5 µM
Structure (SMILES): CCCCOc1ccc(Cl)c(-c2nnc3c(C)nc4ccc(CNCC)cc4n23)c1 [Compound B-101]

IC50 [1]: 0.851 µM
Structure (SMILES): CCNC(=O)c1ccc2nc(C)c3nnc(-c4cnccc4C)n3c2c1 [Compound B-109]

IC50 [1]: 1.48 µM
Structure (SMILES): CCCOc1ccc(Cl)c(-c2nnc3c(C)nc4ccc(CN(C)C)cc4n23)c1 [Compound B-112]

IC50 [1]: 3.55 µM
Structure (SMILES): CCCCOc1ccc(F)c(-c2nnc3c(C)nc4ccc(C#N)cc4n23)c1 [Compound B-120]

IC50 [1, 3]: 1.82 µM
Structure (SMILES): CCNC(=O)c1ccc2nc(C)c3nnc(-c4cccnc4)n3c2c1 [Compound B-127]

IC50 [1]: > 10 µM
Structure (SMILES): CCCCOc1ccc(F)c(-c2nnc3c(C)nc4cc(Br)ccc4n23)c1 [Compound B-175]

PIC50 PDE10 [1, 3]: 5.11
Structure (SMILES): COCCOc1cncc(-c2nnc3c(C)nc4ccc(CN5CCOCC5)cc4n23)c1 [Compound B-203]
